Test results: US20120149574A1, “Methods and Compositions for Managing Water Quality in a Body of Water” (priority 2010, published 2012)

How the values were obtained:
algae [1] = experiment: Comparative pond treatment vs. copper sulfate alone, multiple applications: algae; type: in vivo, green algae (Chlorophyta), cyanobacteria (Cyanophyta)
Experimental: (§1) One pond was treated with a liquid composition prepared as in Example 1 (hereinafter termed “Composition E1”) and the other with copper sulfate pentahydrate. Both ponds were treated with the same concentration of copper on the same days. Five algaecide applications, each approximately one week apart, were conducted on the corresponding pond as a surface spray. The first application was a 1 ppm copper rate, whereas the following applications were all 0.5 ppm copper. All five treatments were completed by the 34th day following the initial treatment (“DAT”), though water sampling continued to evaluate changes in algae growth and water clarity. Representative water samples were periodically collected from each of the ponds at the same durations following treatments. […] As mentioned previously, when used alone, alum is generally applied at such high doses that a buffer is concurrently applied to prevent dramatic changes in water quality that can result in acute toxicity to aquatic organisms.

[2] = Comparative pond treatment, multiple applications: turbidity, phosphorus, water quality; conditions: five applications, FIGS. 11 and 12
Experimental: as §1

algae [3] = experiment: Comparative pond treatment vs. copper sulfate alone, single application: algae; type: in vivo, green algae (Chlorophyta), cyanobacteria (Cyanophyta)
Experimental: (§2) Two ponds of similar dimensions (0.1 surface acres, 4 foot average depth) and similar water character, located beside each other, were used in this experiment. Both ponds were treated once (immediately following the initial sampling event) with the same concentration of copper, 1 ppm, and monitored through time. One pond was treated with Composition E1 and the other with copper sulfate pentahydrate. The objectives were 1) to evaluate the change in algae assemblage composition, 2) to measure algaecidal impacts and re-growth of algae, 3) to measure changes in phosphorus and turbidity following treatment.

[4] = Comparative pond treatment, single application: turbidity and total phosphorus; conditions: single application 1 ppm copper
Experimental: as §2

**Q.** With `O.O.O.O.O.O=S(=O)([O-])[O-].[Cu+2]` [copper sulfate, copper sulfate pentahydrate] as the compound, how does the “chlorophyll levels following cessation of the algaecide treatments” value (algae [1]; after fifth application (34 DAT) (FIG. 9)) read?
**A.** rapidly and significantly increased

**Q.** What about the algal assemblage composition (algae [1]; during and after five applications (FIGS. 13 and 14)) of the same compound?
**A.** cyanobacteria (Cyanophyta) became dominant

**Q.** What about the “chlorophyll a concentration, highest measurements” value (algae [1]; five applications (1 ppm then 0.5 ppm copper), sampling to 69 DAT (FIG. 9), copper sulfate: many measurements, Composition E1: on one occasion) of the same compound?
**A.** exceeding 100 μg/L

**Q.** And the “total phosphorus (TP) and free reactive phosphorus (FRP) concentrations over time” value [2]?
**A.** substantially higher than the Composition E1-treated pond

**Q.** And the “algal assemblage following treatment” value (algae [3]; single application 1 ppm copper (FIGS. 18 and 19))?
**A.** remained dominated by cyanobacteria

**Q.** What about the “decrease of treated algae” value (algae [3]; single application 1 ppm copper, 7 DAT) of the same compound?
**A.** 78%

**Q.** What about the chlorophyll a (algae [3]; single application 1 ppm copper, 7 DAT (FIG. 15)) of the same compound?
**A.** significantly decreased

**Q.** What about the chlorophyll a (algae [3]; single application 1 ppm copper, 14 DAT (FIG. 15)) of the same compound?
**A.** significantly higher

**Q.** What about the “increase in algal densities” value (algae [3]; single application 1 ppm copper, between 7 and 14 DAT) of the same compound?
**A.** 350%

**Q.** And the total phosphorus ([4]; 7 DAT (FIG. 17))?
**A.** little change

**Q.** And the total phosphorus ([4]; 14 DAT vs initial (FIG. 17))?
**A.** notable increase from initial levels
